Reference: ChEMBL document CHEMBL2440076, “New triarylpyrazoles as broad-spectrum anticancer agents: design, synthesis, and biological evaluation” (Eur J Med Chem, 2013)

Columns and labels:
Type in all cases: functional
SF-268 [1] = assay: Growth inhibition of human SF268 cells assessed as cell growth at 5X10'-9 M after 48 hrs by sulforhodamine B assay; conditions: SF-268, 48 h, read-out: Activity
HCT-15 [2] = assay: Growth inhibition of human HCT15 cells assessed as cell growth at 5X10'-9 M after 48 hrs by sulforhodamine B assay; conditions: HCT-15, 48 h, read-out: Activity
SW-620 = assay: Growth inhibition of human SW620 cells assessed as cell growth at 5X10'-5 M after 48 hrs by sulforhodamine B assay; conditions: SW-620, 48 h, read-out: Activity
KM12 [3] = assay: Growth inhibition of human KM12 cells assessed as cell growth at 5X10'-5 M after 48 hrs by sulforhodamine B assay; conditions: KM12, 48 h, read-out: Activity
HT-29 = assay: Growth inhibition of human HT-29 cells assessed as cell growth at 5X10'-5 M after 48 hrs by sulforhodamine B assay; conditions: HT-29, 48 h, read-out: Activity
RPMI-8226 = assay: Growth inhibition of human RPMI8226 cells assessed as cell growth at 5X10'-5 M after 48 hrs by sulforhodamine B assay; conditions: RPMI-8226, 48 h, read-out: Activity
BT-549 = assay: Growth inhibition of human BT549 cells assessed as cell growth at 5X10'-6 M after 48 hrs by sulforhodamine B assay; conditions: BT-549, 48 h, read-out: Activity
A498 [4] = assay: Growth inhibition of human A498 cells assessed as cell growth at 5X10'-6 M after 48 hrs by sulforhodamine B assay; conditions: A498, 48 h, read-out: Activity
HL-60(TB) = assay: Growth inhibition of human HL-60(TB) cells assessed as cell growth at 5X10'-9 M after 48 hrs by sulforhodamine B assay; conditions: HL-60, 48 h, read-out: Activity
SF-268 [5] = assay: Growth inhibition of human SF268 cells assessed as cell growth at 5X10'-6 M after 48 hrs by sulforhodamine B assay; conditions: SF-268, 48 h, read-out: Activity
MOLT-4 = assay: Growth inhibition of human MOLT4 cells assessed as cell growth at 5X10'-6 M after 48 hrs by sulforhodamine B assay; conditions: MOLT-4, 48 h, read-out: Activity
[6] = Growth inhibition of human Hs 578T cells assessed as cell growth at 5X10'-7 M after 48 hrs by sulforhodamine B assay; conditions: read-out: Activity
[7] = Growth inhibition of human NCI-ADR-RES cells assessed as cell growth at 5X10'-7 M after 48 hrs by sulforhodamine B assay; conditions: read-out: Activity
OVCAR-8 [8] = assay: Growth inhibition of human OVCAR8 cells assessed as cell growth at 5X10'-7 M after 48 hrs by sulforhodamine B assay; conditions: OVCAR-8, 48 h, read-out: Activity
SF-539 [9] = assay: Growth inhibition of human SF539 cells assessed as cell growth at 5X10'-7 M after 48 hrs by sulforhodamine B assay; conditions: SF-539, 48 h, read-out: Activity
KM12 [10] = assay: Growth inhibition of human KM12 cells assessed as cell growth at 5X10'-7 M after 48 hrs by sulforhodamine B assay; conditions: KM12, 48 h, read-out: Activity
HCT-15 [11] = assay: Growth inhibition of human HCT15 cells assessed as cell growth at 5X10'-7 M after 48 hrs by sulforhodamine B assay; conditions: HCT-15, 48 h, read-out: Activity
NCI-H522 = assay: Growth inhibition of human NCI-H522 cells assessed as cell growth at 5X10'-7 M after 48 hrs by sulforhodamine B assay; conditions: NCI-H522, 48 h, read-out: Activity
NCI-H23 = assay: Growth inhibition of human NCI-H23 cells assessed as cell growth at 5X10'-7 M after 48 hrs by sulforhodamine B assay; conditions: NCI-H23, 48 h, read-out: Activity
HOP-62 = assay: Growth inhibition of human HOP62 cells assessed as cell growth at 5X10'-7 M after 48 hrs by sulforhodamine B assay; conditions: HOP-62, 48 h, read-out: Activity
T47D = assay: Growth inhibition of human T47D cells assessed as cell growth at 5X10'-8 M after 48 hrs by sulforhodamine B assay; conditions: read-out: Activity
OVCAR-3 = assay: Growth inhibition of human OVCAR3 cells assessed as cell growth at 5X10'-8 M after 48 hrs by sulforhodamine B assay; conditions: OVCAR-3, 48 h, read-out: Activity
Malme-3M = assay: Growth inhibition of human MALME-3M cells assessed as cell growth at 5X10'-8 M after 48 hrs by sulforhodamine B assay; conditions: read-out: Activity
SF-539 [12] = assay: Growth inhibition of human SF539 cells assessed as cell growth at 5X10'-8 M after 48 hrs by sulforhodamine B assay; conditions: SF-539, 48 h, read-out: Activity
SF-295 = assay: Growth inhibition of human SF295 cells assessed as cell growth at 5X10'-8 M after 48 hrs by sulforhodamine B assay; conditions: SF-295, 48 h, read-out: Activity
MDA-MB-468 = assay: Growth inhibition of human MDA-MB-468 cells assessed as cell growth at 5X10'-5 M after 48 hrs by sulforhodamine B assay; conditions: MDA-MB-468, 48 h, read-out: Activity
DU-145 = assay: Growth inhibition of human DU145 cells assessed as cell growth at 5X10'-5 M after 48 hrs by sulforhodamine B assay; conditions: DU-145, 48 h, read-out: Activity
OVCAR-4 = assay: Growth inhibition of human OVCAR4 cells assessed as cell growth at 5X10'-5 M after 48 hrs by sulforhodamine B assay; conditions: OVCAR-4, 48 h, read-out: Activity
[13] = Growth inhibition of human Hs 578T cells assessed as cell growth at 5X10'-9 M after 48 hrs by sulforhodamine B assay; conditions: read-out: Activity
PC-3 = assay: Growth inhibition of human PC3 cells assessed as cell growth at 5X10'-9 M after 48 hrs by sulforhodamine B assay; conditions: PC-3, 48 h, read-out: Activity
UO-31 = assay: Growth inhibition of human UO31 cells assessed as cell growth at 5X10'-9 M after 48 hrs by sulforhodamine B assay; conditions: UO-31, 48 h, read-out: Activity
ACHN = assay: Growth inhibition of human ACHN cells assessed as cell growth at 5X10'-9 M after 48 hrs by sulforhodamine B assay; conditions: read-out: Activity
CAKI-1 = assay: Growth inhibition of human CAKI-1 cells assessed as cell growth at 5X10'-9 M after 48 hrs by sulforhodamine B assay; conditions: CAKI-1, 48 h, read-out: Activity
A498 [14] = assay: Growth inhibition of human A498 cells assessed as cell growth at 5X10'-9 M after 48 hrs by sulforhodamine B assay; conditions: A498, 48 h, read-out: Activity
786-0 = assay: Growth inhibition of human 786-0 cells assessed as cell growth at 5X10'-9 M after 48 hrs by sulforhodamine B assay; conditions: 786-0, 48 h, read-out: Activity
OVCAR-8 [15] = assay: Growth inhibition of human OVCAR8 cells assessed as cell growth at 5X10'-9 M after 48 hrs by sulforhodamine B assay; conditions: OVCAR-8, 48 h, read-out: Activity
SK-MEL-2 = assay: Growth inhibition of human SK-MEL-2 cells assessed as cell growth at 5X10'-9 M after 48 hrs by sulforhodamine B assay; conditions: SK-MEL-2, 48 h, read-out: Activity

Row | SMILES | growth at 0.005 µM (SF-268 [1]) [%] | growth at 0.005 µM (HCT-15 [2]) [%] | growth at 50 µM (SW-620) [%] | growth at 50 µM (KM12 [3]) [%] | growth at 50 µM (HT-29) [%] | growth at 50 µM (RPMI-8226) [%] | growth at 5 µM (BT-549) [%] | growth at 5 µM (A498 [4]) [%] | growth at 0.005 µM (HL-60(TB)) [%] | growth at 5 µM (SF-268 [5]) [%] | growth at 5 µM (MOLT-4) [%] | growth at 0.5 µM [6] [%] | growth at 0.5 µM [7] [%] | growth at 0.5 µM (OVCAR-8 [8]) [%] | growth at 0.5 µM (SF-539 [9]) [%] | growth at 0.5 µM (KM12 [10]) [%] | growth at 0.5 µM (HCT-15 [11]) [%] | growth at 0.5 µM (NCI-H522) [%] | growth at 0.5 µM (NCI-H23) [%] | growth at 0.5 µM (HOP-62) [%] | further results
1 | COc1cc(-c2nn(-c3cccc(NC(=O)Nc4ccc(Cl)c(Cl)c4)c3)cc2-c2ccncc2)ccc1Cl | 100 | 95 | 7 | -50 | -19 | -11 | 8 | -3 | 111 | 8 | -4 | 83 | 72 | 73 | 78 | 70 | 76 | 68 | 91 | 93 | growth at 0.05 µM (T47D): 101%; growth at 0.05 µM (OVCAR-3): 111%; growth at 0.05 µM (Malme-3M): 109%; growth at 0.05 µM (SF-539 [12]): 85%; growth at 0.05 µM (SF-295): 88%; growth at 50 µM (MDA-MB-468): -31%; growth at 50 µM (DU-145): -1%; growth at 50 µM (OVCAR-4): 5%; growth at 0.005 µM [13]: 99%; growth at 0.005 µM (PC-3): 99%; growth at 0.005 µM (UO-31): 88%; growth at 0.005 µM (ACHN): 99%; growth at 0.005 µM (CAKI-1): 97%; growth at 0.005 µM (A498 [14]): 87%; growth at 0.005 µM (786-0): 100%; growth at 0.005 µM (OVCAR-8 [15]): 99%; growth at 0.005 µM (SK-MEL-2): 109%
2 | COc1cc(-c2nn(-c3cccc(NC(=O)Nc4cccc(C(F)(F)F)c4)c3)cc2-c2ccncc2)ccc1Cl | 97 | 100 | -6 | -47 | -79 | -8 | -12 | -7 | 90 | 1 | -14 | 80 | 65 | 65 | 79 | 55 | 66 | 65 | 90 | 94 | growth at 0.05 µM (T47D): 98%; growth at 0.05 µM (OVCAR-3): 102%; growth at 0.05 µM (Malme-3M): 87%; growth at 0.05 µM (SF-539 [12]): 94%; growth at 0.05 µM (SF-295): 91%; growth at 50 µM (MDA-MB-468): -44%; growth at 50 µM (DU-145): 1%; growth at 50 µM (OVCAR-4): -3%; growth at 0.005 µM [13]: 96%; growth at 0.005 µM (PC-3): 92%; growth at 0.005 µM (UO-31): 88%; growth at 0.005 µM (ACHN): 104%; growth at 0.005 µM (CAKI-1): 94%; growth at 0.005 µM (A498 [14]): 92%; growth at 0.005 µM (786-0): 95%; growth at 0.005 µM (OVCAR-8 [15]): 99%; growth at 0.005 µM (SK-MEL-2): 101%
3 | COc1cc(-c2nn(-c3cccc(NC(=O)Nc4cc(C(F)(F)F)cc(C(F)(F)F)c4)c3)cc2-c2ccncc2)ccc1Cl | 100 | 97 | -65 | -68 | -77 | 3 | -27 | -43 | 100 | -40 | -4 | 79 | 72 | 51 | 85 | 53 | 61 | 60 | 85 | 93 | growth at 0.05 µM (T47D): 104%; growth at 0.05 µM (OVCAR-3): 109%; growth at 0.05 µM (Malme-3M): 104%; growth at 0.05 µM (SF-539 [12]): 90%; growth at 0.05 µM (SF-295): 94%; growth at 50 µM (MDA-MB-468): -53%; growth at 50 µM (DU-145): -80%; growth at 50 µM (OVCAR-4): -21%; growth at 0.005 µM [13]: 96%; growth at 0.005 µM (PC-3): 92%; growth at 0.005 µM (UO-31): 90%; growth at 0.005 µM (ACHN): 104%; growth at 0.005 µM (CAKI-1): 95%; growth at 0.005 µM (A498 [14]): 90%; growth at 0.005 µM (786-0): 100%; growth at 0.005 µM (OVCAR-8 [15]): 101%; growth at 0.005 µM (SK-MEL-2): 111%
